Holding throughout (assay): E. coli hemG growth inhibition by herbicide, AtPPO1 variant
Common to all, as to type: cell-based
What all share (details): read-out: percentage growth inhibition

The target in test [1] is T1, AtPPO1 WT (Arabidopsis thaliana, UniProt P55826).
T1 construct: expressed in transfected cells; host or cells: E. coli BL21(DE3) hemG (hemG replaced by CmR), pET24a plasmid
T1 sequence (P55826 1-537): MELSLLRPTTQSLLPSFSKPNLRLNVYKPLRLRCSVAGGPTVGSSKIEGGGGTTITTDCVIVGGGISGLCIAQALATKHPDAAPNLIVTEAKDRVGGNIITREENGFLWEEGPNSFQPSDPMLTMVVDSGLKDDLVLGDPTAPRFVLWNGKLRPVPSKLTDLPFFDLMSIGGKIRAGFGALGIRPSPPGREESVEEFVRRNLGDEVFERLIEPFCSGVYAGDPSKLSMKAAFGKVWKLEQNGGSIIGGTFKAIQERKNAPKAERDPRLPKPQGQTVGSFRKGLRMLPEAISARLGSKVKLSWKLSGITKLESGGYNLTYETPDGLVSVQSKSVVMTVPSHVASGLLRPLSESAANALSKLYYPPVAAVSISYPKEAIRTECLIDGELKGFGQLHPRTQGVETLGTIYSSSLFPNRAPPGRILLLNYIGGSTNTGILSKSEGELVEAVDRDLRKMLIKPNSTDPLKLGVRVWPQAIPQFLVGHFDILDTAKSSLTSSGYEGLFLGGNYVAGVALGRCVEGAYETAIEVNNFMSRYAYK
An outline of the steps:
(§1)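 Read-out is OD600 at 24 h post inoculation, converted to percent growth inhibition relative to DMSO. The hemG-deleted BL21(DE3) host relied on the plasmid-borne AtPPO1 variant, induced with 0.1 mM IPTG, with 6.25 ppm herbicide 0 or E or 0.78 ppm herbicide B present at 37° C.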

Test [2] has as its target T2, AtPPO1 E212Y (Arabidopsis thaliana, UniProt P55826, E212Y).
T2 construct: expressed in transfected cells; host or cells: E. coli BL21(DE3) hemG (hemG replaced by CmR), pET24a plasmid
T2 sequence (P55826 35-537 E212Y): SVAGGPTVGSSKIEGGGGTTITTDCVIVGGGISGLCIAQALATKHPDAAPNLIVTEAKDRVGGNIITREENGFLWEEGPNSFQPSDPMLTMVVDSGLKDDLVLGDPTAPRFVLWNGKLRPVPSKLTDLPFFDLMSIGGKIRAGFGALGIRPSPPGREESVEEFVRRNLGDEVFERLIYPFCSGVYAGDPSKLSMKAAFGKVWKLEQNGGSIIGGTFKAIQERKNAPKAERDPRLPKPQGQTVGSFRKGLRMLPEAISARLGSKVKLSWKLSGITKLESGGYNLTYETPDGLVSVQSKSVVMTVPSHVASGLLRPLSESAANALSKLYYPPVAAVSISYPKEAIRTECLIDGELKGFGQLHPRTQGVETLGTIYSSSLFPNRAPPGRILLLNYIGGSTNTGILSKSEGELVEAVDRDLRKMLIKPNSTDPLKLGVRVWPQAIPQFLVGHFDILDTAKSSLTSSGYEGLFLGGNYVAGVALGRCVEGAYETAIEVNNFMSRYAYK
The method, boiled down:
as §1

Test [3] has as its target T3, AtPPO1 S305L (Arabidopsis thaliana, UniProt P55826, S305L).
T3 construct: expressed in transfected cells; host or cells: E. coli BL21(DE3) hemG (pET24a, T7 promoter)
T3 sequence (P55826 35-537 S305L): T2 sequence (P55826 35-537 E212Y) with Y178E, S271L
An outline of the steps: as §1

Test [4] deals with T4, AtPPO1 G481D (Arabidopsis thaliana, UniProt P55826, G481D).
T4 construct: expressed in transfected cells; host or cells: E. coli BL21(DE3) hemG, pET24a plasmid
T4 sequence (P55826 35-537 G481D): T2 sequence (P55826 35-537 E212Y) with Y178E, G447D
An outline of the steps:
as §1

In patent US20260297542A1, “HERBICIDE RESISTANT PLANTS” (SYNGENTA CROP PROTECTION AG, priority 2023, published 2026) one finds inhibition data, which are given here for three compounds.

Where a chain is given by its changes, count along the chain named.

The inhibition is the percentage by which the read-out fell short of the control. Turning to `C#CCN1C(=O)C(F)(F)Oc2cc(F)c(-n3c(=O)n(C)c(=S)n(C)c3=O)cc21` [Herbicide B, trifludimoxazin], the inhibition at 0.78 ppm in test [1] worked out at 61%; in test [2] it was 25%; in test [3], 26%; in test [4], 40%.

For `CCOC(=O)[C@]1(C)CC(c2cc(-n3c(=O)n(C)c(=S)n(C)c3=O)c(F)cc2Cl)=NO1` [Herbicide D, ethyl (5S)-3-[2-chloro-5-(3,5-dimethyl-2,6-dioxo-4-thioxo-1,3,5-triazinan-1-yl)-4-fluoro-phenyl]-5-methyl-4H-isoxazole-5-carboxylate], the inhibition at 6.25 ppm in test [1] stood at 58%; in test [2] it was 27%; in test [3] it was 14%; in test [4], 20%.

On to `CC(C)N(C)S(=O)(=O)NC(=O)c1cc(-n2c(=O)cc(C(F)(F)F)n(C)c2=O)c(F)cc1Cl` [Herbicide E, saflufenacil], for which the inhibition at 6.25 ppm was determined as 64% in test [1], 65% in test [2], 39% in test [3] and 16% in test [4].
